Test results from patent US8188308B2 (Kyowa Hakko Bio Co., Ltd., priority 2006, dated 2012).
Values joined by “and” are separate entries in the source; they are usually repeats but may differ in a detail not shown here. Identical values can stand only once.

Experiments:
[1] = glutathione crystals
Protocol: The crystals were observed and photographed using a VH-8000 digital microscope (Keyence Corporation). The width of approximately 300 crystals was measured and calculations performed.

[2] = glutathione crystals; volume median diameter
Protocol: (2) Average Particle Diameter
This is synonymous with volume median diameter, and it was measured using a laser diffraction and scattering particle diameter analyzer, the LMS-24 SK Laser Micron Sizer (Seishin Enterprise Co. Ltd.) and expressed as a cumulative 50% volume particle diameter.

[3] = 12 g crystals in 200 ml ionized water, 37° C., 120 rpm, time to complete dissolution
Protocol: 12 g of each of the crystals was put in to 200 ml of the ionized water maintained at a temperature of 37° C., and the time from injection to complete dissolution of the crystals when agitated at 120 rpm was measured.

Q: With `N[C@@H](CCC(=O)N[C@@H](CS)C(=O)NCC(=O)O)C(=O)O` [Commercial product A] as the compound, how does the Average width [1] read?
A: 3 μm

Q: What about the Average particle diameter [2] of the same compound?
A: 9 μm

Q: What about the Dissolution time [3] of the same compound?
A: 124 s

Q: What does the source list for `N[C@@H](CCC(=O)N[C@@H](CS)C(=O)NCC(=O)O)C(=O)O` [Example 1, gamma-L-glutamyl-L-cysteinyl glycine]?
A: Average width [1]: 25 μm; Average particle diameter [2]: 52 μm

Q: With `N[C@@H](CCC(=O)N[C@@H](CS)C(=O)NCC(=O)O)C(=O)O` [Example 2, gamma-L-glutamyl-L-cysteinyl glycine] as the compound, how does the Average width [1] read?
A: 14 μm and 7 μm

Q: For `N[C@@H](CCC(=O)N[C@@H](CS)C(=O)NCC(=O)O)C(=O)O` [commercial product B], which Average width [1] is on record?
A: 3 μm

Q: Which Average width [1] does the source give for `N[C@@H](CCC(=O)N[C@@H](CS)C(=O)NCC(=O)O)C(=O)O` [commercial product C] here?
A: 3 μm
